Source: publication PMC11377395 (Purinergic Signalling, 2024)

Molecular target: T1, A3 adenosine receptor (hA3AR) (Homo sapiens, UniProt P0DMS8)
T1 construct: gene ADORA3
T1 sequence (P0DMS8 1-318): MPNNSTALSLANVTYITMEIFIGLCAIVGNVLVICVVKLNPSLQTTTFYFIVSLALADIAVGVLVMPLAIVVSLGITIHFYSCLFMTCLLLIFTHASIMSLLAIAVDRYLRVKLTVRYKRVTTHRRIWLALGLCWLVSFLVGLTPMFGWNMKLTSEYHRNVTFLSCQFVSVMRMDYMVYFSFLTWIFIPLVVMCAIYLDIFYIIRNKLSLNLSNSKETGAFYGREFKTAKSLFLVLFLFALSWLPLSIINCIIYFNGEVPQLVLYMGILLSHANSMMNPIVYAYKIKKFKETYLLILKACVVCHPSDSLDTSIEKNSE
Test: positive allosteric modulation of MRS5698 at […] in cAMP assay, CHO-hA3AR (also HL-60 cells)
Type: cell-based

Clc1ccc(Nc2nc3ccccc3c3[nH]c(C4CCCCC4)nc23)cc1Cl [LUF6000, N-(3,4-Dichloro-phenyl)-2-cyclohexyl-1 H-imidazo[4,5-c]quinolin-4-amine]
% Emax enhancement: 19 % Emax enhancement
